Measurements from ChEMBL document CHEMBL5244273, “Tuberculosis: An Overview of the Immunogenic Response, Disease Progression, and Medicinal Chemistry Efforts in the Last Decade toward the Development of Potential Drugs for Extensively Drug-Resistant Tuberculosis Strains” (J Med Chem, 2021).
In brackets after ≈: the same amount, converted by molar mass.

What was measured:
Type in all cases: functional
[1] = tested on: Mycobacterium tuberculosis; assay: Antitubercular activity against Mycobacterium tuberculosis H37Rv assessed as inhibition of bacterial growth by alamar blue assay
[2] = tested on: Mycobacterium tuberculosis; assay: Antimycobacterial activity against Mycobacterium tuberculosis H37Rv incubated for 2 weeks; conditions: 336 h
[3] = tested on: Mycobacterium tuberculosis; assay: Antimycobacterial activity against Mycobacterium tuberculosis H37Rv incubated for 3 weeks; conditions: 504 h
[4] = tested on: Mycobacterium tuberculosis; assay: Antimycobacterial activity against Mycobacterium tuberculosis H37Rv incubated for 4 weeks; conditions: 672 h
[5] = tested on: Mycobacterium tuberculosis; assay: Antimycobacterial activity against Mycobacterium tuberculosis H37Rv incubated for 5 weeks; conditions: 840 h
[6] = tested on: Mycobacterium tuberculosis; assay: Antimycobacterial activity against Mycobacterium tuberculosis H37Rv assessed as inhibition of bacterial growth incubated for 5 days by alamar blue assay; conditions: 120 h, time 5 day
[7] = tested on: Mycobacterium tuberculosis; assay: Antimycobacterial activity against Mycobacterium tuberculosis H37Rv

SMILES	MIC [1] [µg/mL]	MIC [2] [µg/mL]	MIC [3] [µg/mL]	MIC [4] [µg/mL]	MIC [5] [µg/mL]	MIC [6] [µg/mL]	also measured
Nc1ccc(O)c(C(=O)NNC(=O)c2ccncc2)c1	50 (≈ 184 µM)	–	–	–	–	–	–
CC(C)(C)n1cc(C(=O)O)c(=O)c2cc(F)c(-c3ccccc3)cc21	–	1 (≈ 2.95 µM)	2 (≈ 5.89 µM)	2 (≈ 5.89 µM)	2 (≈ 5.89 µM)	–	–
CC(C)(C)n1cc(C(=O)O)c(=O)c2cc(F)c(C#Cc3ccccc3)cc21	–	> 16	> 16	> 16	> 16	–	–
O=C(NNC(=O)c1ccc([N+](=O)[O-])cc1)c1ccncc1	25 (≈ 87.3 µM)	–	–	–	–	–	–
Cc1ccc(-c2cc3c(cc2F)c(=O)c(C(=O)O)cn3C(C)(C)C)cc1	–	1 (≈ 2.83 µM)	1 (≈ 2.83 µM)	1 (≈ 2.83 µM)	1 (≈ 2.83 µM)	–	–
Cc1ccccc1C(=O)NNC(=O)c1ccncc1	25 (≈ 97.9 µM)	–	–	–	–	–	–
O=C(/C=C/c1ccc(Cl)cc1)NNC(=O)c1ccncc1	12.5 (≈ 41.4 µM)	–	–	–	–	–	–
O=C(/C=C/c1ccccc1)NNC(=O)c1ccncc1	50 (≈ 187 µM)	–	–	–	–	–	–
COc1ccc(NC(=O)c2c(Nc3cccc(Cl)c3)nn3c(O)cc(C)nc23)cc1	–	–	–	–	–	12.5 (≈ 29.5 µM)	–
Cc1cc(O)n2nc(Nc3ccc(Cl)cc3)c(C(=O)Nc3ccccc3)c2n1	–	–	–	–	–	50 (≈ 127 µM)	–
COc1cccc(-c2cc3c(cc2F)c(=O)c(C(=O)O)cn3C(C)(C)C)c1	–	1 (≈ 2.71 µM)	1 (≈ 2.71 µM)	1 (≈ 2.71 µM)	1 (≈ 2.71 µM)	–	–
O=C(O)c1cn(C2CC2)c2cc(N3CCNCC3)c(F)cc2c1=O [CIPROFLOXACIN]	3.12 (≈ 9.43 µM)	0.25 (≈ 0.754 µM)	0.25 (≈ 0.754 µM)	0.25 (≈ 0.754 µM)	0.25 (≈ 0.754 µM)	3.12 (≈ 9.42 µM)	MIC [7]: 3.12 µg/mL (≈ 9.42 µM)
Cc1cc(O)n2nc(Nc3ccc(Cl)c(Cl)c3)c(C(=O)Nc3cccc(C)c3C)c2n1	–	–	–	–	–	50 (≈ 110 µM)	–
CC(C)(C)n1cc(C(=O)O)c(=O)c2cc(F)c(-c3ccc(O)cc3)cc21	–	0.25 (≈ 0.704 µM)	0.25 (≈ 0.704 µM)	0.25 (≈ 0.704 µM)	0.25 (≈ 0.704 µM)	–	–
Cc1cc(O)n2nc(Nc3ccc(Cl)cc3)c(C(N)=O)c2n1	–	–	–	–	–	50 (≈ 157 µM)	–
COc1ccc(-c2cc3c(cc2F)c(=O)c(C(=O)O)cn3C(C)(C)C)cn1	–	0.25 (≈ 0.675 µM)	0.25 (≈ 0.675 µM)	0.5 (≈ 1.35 µM)	0.5 (≈ 1.35 µM)	–	–
O=C(NNC(=O)c1ccc(Cl)cc1)c1ccncc1	25 (≈ 90.7 µM)	–	–	–	–	–	–
O=C(NNC(=O)c1ccc(Cl)c(Cl)c1)c1ccncc1	12.5 (≈ 40.3 µM)	–	–	–	–	–	–
COc1ccc(NC(=O)c2c(Nc3ccccc3)nn3c(O)cc(C)nc23)cc1	–	–	–	–	–	50 (≈ 128 µM)	–
Cc1ccc(Nc2nn3c(O)cc(C)nc3c2C(=O)Nc2ccc(Cl)cc2)c(C)c1	–	–	–	–	–	50 (≈ 119 µM)	–
Cc1ccc(S(=O)(=O)NNC(=O)c2ccncc2)cc1	25 (≈ 85.8 µM)	–	–	–	–	–	–
Cc1ccc(Nc2nn3c(O)cc(C)nc3c2C(=O)Nc2ccccc2)cc1	–	–	–	–	–	100 (≈ 268 µM)	–

SMILES	MIC [1] [µg/mL]	MIC [2] [µg/mL]	MIC [3] [µg/mL]	MIC [4] [µg/mL]	MIC [5] [µg/mL]	MIC [6] [µg/mL]	also measured
Cc1cc(O)n2nc(N3CCCC3)c(C(=O)Nc3ccc(Cl)c(Cl)c3)c2n1	–	–	–	–	–	25 (≈ 61.5 µM)	–
COc1ccc(-c2cc3c(cc2F)c(=O)c(C(=O)O)cn3C2CC2)cn1	–	0.5 (≈ 1.41 µM)	0.5 (≈ 1.41 µM)	0.5 (≈ 1.41 µM)	0.5 (≈ 1.41 µM)	–	–
Cc1ccc(Nc2nn3c(O)cc(C)nc3c2C(=O)Nc2ccc(F)cc2)c(C)c1	–	–	–	–	–	50 (≈ 123 µM)	–
O=C(Cc1ccccc1Br)NNC(=O)c1ccncc1	25 (≈ 74.8 µM)	–	–	–	–	–	–
COc1ccc(NC(=O)c2c(Nc3ccc(OC)cc3)nn3c(O)cc(C)nc23)cc1	–	–	–	–	–	12.5 (≈ 29.8 µM)	–
O=C(Cc1cccc(Br)c1)NNC(=O)c1ccncc1	25 (≈ 74.8 µM)	–	–	–	–	–	–
CC(C)(C)CCn1cc(C(=O)O)c(=O)c2cc(F)c(-c3ccccc3)cc21	–	4 (≈ 10.9 µM)	8 (≈ 21.8 µM)	8 (≈ 21.8 µM)	8 (≈ 21.8 µM)	–	–
C=CC(=O)NNC(=O)c1ccncc1	50 (≈ 262 µM)	–	–	–	–	–	–
O=C(NNC(=O)c1ccncc1)c1ccncc1	12.5 (≈ 51.6 µM)	–	–	–	–	–	–
CC(Br)C(=O)NNC(=O)c1ccncc1 (stereo not drawn)	50 (≈ 184 µM)	–	–	–	–	–	–
CCC(C)(C)n1cc(C(=O)O)c(=O)c2cc(F)c(-c3ccccc3)cc21	–	8 (≈ 22.6 µM)	16 (≈ 45.3 µM)	16 (≈ 45.3 µM)	16 (≈ 45.3 µM)	–	–
COc1ccc(Nc2nn3c(O)cc(C)nc3c2C(=O)Nc2ccc(F)c(Cl)c2)cc1	–	–	–	–	–	25 (≈ 56.6 µM)	–
CCOc1ccc(NC(=O)c2c(Nc3ccc(C)cc3C)nn3c(O)cc(C)nc23)cc1	–	–	–	–	–	50 (≈ 116 µM)	–
COc1ccc(NC(=O)c2c(NN3CCOCC3)nn3c(O)cc(C)nc23)cc1	–	–	–	–	–	25 (≈ 62.7 µM)	–
Cc1ccccc1-c1cc2c(cc1F)c(=O)c(C(=O)O)cn2C(C)(C)C	–	8 (≈ 22.6 µM)	8 (≈ 22.6 µM)	8 (≈ 22.6 µM)	16 (≈ 45.3 µM)	–	–
O=C(COc1ccccc1)NNC(=O)c1ccncc1	25 (≈ 92.2 µM)	–	–	–	–	–	–
CCCCCCCCCCCCCCCCCC(=O)NNC(=O)c1ccncc1	50 (≈ 124 µM)	–	–	–	–	–	–
CC(C)(C)n1cc(C(=O)O)c(=O)c2cc(F)c(-c3ccc(F)cc3F)cc21	–	4 (≈ 10.7 µM)	8 (≈ 21.3 µM)	8 (≈ 21.3 µM)	8 (≈ 21.3 µM)	–	–
CC(C)(C)n1cc(C(=O)O)c(=O)c2cc(F)c(-c3ccccc3Cl)cc21	–	8 (≈ 21.4 µM)	8 (≈ 21.4 µM)	8 (≈ 21.4 µM)	8 (≈ 21.4 µM)	–	–
Cc1cc(O)n2nc(Nc3cccc(C)c3C)c(C(=O)Nc3cccc(Cl)c3)c2n1	–	–	–	–	–	50 (≈ 119 µM)	–
CC(C)(C)n1cc(C(=O)O)c(=O)c2cc(F)c(-c3cccc(Cl)c3)cc21	–	2 (≈ 5.35 µM)	2 (≈ 5.35 µM)	2 (≈ 5.35 µM)	4 (≈ 10.7 µM)	–	–
